Data from patent US20060216336A1, “Transdermal therapeutic system for Parkinson's Disease” (priority 2002, published 2006).

Tests used:
RLS symptoms = settings: administration of rotigotine; cited from earlier work
[1] = Multiple dose trial with rotating patch application sites in early-stage Parkinson's disease: rotigotine pharmacokinetics (Example 4)
Text: Each day, a fresh patch was placed on a new skin site (abdomen, flank, upper arm, shoulder, thigh, hip) in a rotating order. The silicone transdermal patches were made in accordance with the teachings of U.S. Patent Application Publication No. US 2003/0026830 at paragraphs 38-42, U.S. Patent Application Publication No. US 2003/0027793 at paragraphs 37-41 and U.S. Pat. No. 6,884,434, columns 5-6, Example 2 and comprised the following layers and components:
The trial consisted of an Eligibility Assessment (EA), a 24-day Titration Phase (4.5 to 18.0 mg/day doses; incremental increases of 4.5mg/day every 6 days), a 6-day Maintenance Phase (18.0 mg/day dose), a 6-day De-escalation Phase (13.5/9.0/4.5mg/day decreasing dose every 2 days), and a Safety Follow-Up visit 2 days following the last dose.
The silicone transdermal patches were made in accordance with the teachings of U.S. Patent Application Publication No. US 2003/0026830 at paragraphs 3842 and U.S. Patent Application Publication No. US 2003/0027793 at paragraphs 3741 comprised the following layers and components as disclosed above
The 18.0 mg/day dose used 2×20 cm^2 patches. Initial doses were 4.5 mg/day with weekly increases of 4.5 mg/day to a maximum target dose of 18.0 mg/day.

[2] = application site Abdomen, normalized for body weight and apparent dose, Day 27 and Day 30 combined (PKS)
[3] = application site Flank, normalized for body weight and apparent dose, Day 27 and Day 30 combined (PKS)
[4] = application site Hip, normalized for body weight and apparent dose, Day 27 and Day 30 combined (PKS)
[5] = application site Shoulder, normalized for body weight and apparent dose, Day 27 and Day 30 combined (PKS)
[6] = application site Thigh, normalized for body weight and apparent dose, Day 27 and Day 30 combined (PKS)
[7] = application site Upper arm, normalized for body weight and apparent dose, Day 27 and Day 30 combined (PKS)

CCCN(CCc1cccs1)[C@H]1CCc2c(O)cccc2C1 [rotigotine, (6S)-6{propyl[2-(2-thienyl)ethyl]amino}-5,6,7,8-tetrahydro-1-naphthalenol]
effect on RLS symptoms (RLS symptoms): suppression and reduction of RLS symptoms
Time to Maximum Concentration ([1]; Day 30, site F (flank), Geo. Mean): 15.43 h
Time to Maximum Concentration ([1]; Days 27 and 30 combined, site UA (upper arm), Mean): 12.71 h
AUC0-t,ss,normalized, Range [1, 2]: 89.3 to 952.1 ng·kg·h/mL/mg
Cmax,ss, normalized, Geometric mean (SD) [1, 2]: 16.367 (1.6473) ng * kg/mL/mg
Cmax,ss, normalized, Median [1, 2]: 14.906 ng·kg/mL/mg
Cmax,ss, normalized, Geometric mean (SD) [1, 3]: 17.168 (1.5894) ng * kg/mL/mg
Cmax,ss, normalized, Mean [1, 3]: 18.976 ng·kg/mL/mg
Cmax,ss, normalized, Median [1, 3]: 16.666 ng·kg/mL/mg
Cmax,ss, normalized, Geometric mean (SD) [1, 4]: 17.253 (1.6685) ng * kg/mL/mg
Cmax,ss, normalized, Mean [1, 4]: 19.956 ng·kg/mL/mg
Cmax,ss, normalized, Median [1, 4]: 15.577 ng·kg/mL/mg
Cmax,ss, normalized, Geometric mean (SD) [1, 5]: 14.499 (1.5627) ng * kg/mL/mg
Cmax,ss, normalized, Mean [1, 5]: 15.898 ng·kg/mL/mg
Cmax,ss, normalized, Median [1, 5]: 15.328 ng·kg/mL/mg
Cmax,ss, normalized, Geometric mean (SD) [1, 6]: 16.046 (1.5548) ng * kg/mL/mg
Cmax,ss, normalized, Mean [1, 6]: 17.793 ng·kg/mL/mg
Cmax,ss, normalized, Median [1, 6]: 15.506 ng·kg/mL/mg
Cmax,ss, normalized, Geometric mean (SD) [1, 7]: 16.508 (1.4597) ng * kg/mL/mg
Cmax,ss, normalized, Mean [1, 7]: 17.727 ng·kg/mL/mg
Cmax,ss, normalized, Median [1, 7]: 15.499 ng·kg/mL/mg
plasma concentration at Time 0 (Ctrough) ([1]; human, in vivo): about 1 ng/mL
concentration at 30 day ([1]; human, in vivo, 18 mg/day, Average Concentration, Day 30, site UA (upper arm), Median): 0.895 ng/mL
concentration at […] ([1]; human, in vivo, 18 mg/day, rotigotine plasma concentration Geo. Mean, Hip, Day 27, 23.5 H): 0.875 ng/mL
concentration at […] ([1]; human, in vivo, 18 mg/day, rotigotine plasma concentration Geo. Mean, Hip, Day 30, 23.5 H): 0.758 ng/mL
concentration at […] ([1]; human, in vivo, 18 mg/day, rotigotine plasma concentration Geo. Mean, Shoulder, Day 30, 23.5 H): 0.851 ng/mL
concentration at […] ([1]; human, in vivo, 18 mg/day, rotigotine plasma concentration Geo. Mean, Shoulder, Days 27 & 30 Combined, 23.5 H): 0.82 ng/mL
concentration at […] ([1]; human, in vivo, 18 mg/day, rotigotine plasma concentration Geo. Mean, Thigh, Day 30, 23.5 H): 0.656 ng/mL
concentration at 18 h ([1]; human, in vivo, 18 mg/day, rotigotine plasma concentration Geo. Mean, Thigh, Days 27 & 30 Combined, 18 H): 0.895 ng/mL
concentration at […] ([1]; human, in vivo, 18 mg/day, rotigotine plasma concentration Geo. Mean, Thigh, Days 27 & 30 Combined, 23.5 H): 0.639 ng/mL
concentration at […] ([1]; human, in vivo, 18 mg/day, rotigotine plasma concentration Geo. Mean, Upper Arm, Day 30, 23.5 H): 0.833 ng/mL
concentration at […] ([1]; human, in vivo, 18 mg/day, rotigotine plasma concentration Geo. Mean, Upper Arm, Days 27 & 30 Combined, 23.5 H): 0.789 ng/mL
concentration at […] ([1]; human, in vivo, 18 mg/day, rotigotine plasma concentration Max, Hip, Day 27, 23.5 H): 1.75 ng/mL
concentration at […] ([1]; human, in vivo, 18 mg/day, rotigotine plasma concentration Max, Hip, Day 30, 23.5 H): 1.35 ng/mL
concentration at […] ([1]; human, in vivo, 18 mg/day, rotigotine plasma concentration Max, Hip, Days 27 & 30 Combined, 23.5 H): 1.75 ng/mL
concentration at […] ([1]; human, in vivo, 18 mg/day, rotigotine plasma concentration Max, Shoulder, Day 30, 23.5 H): 3.01 ng/mL
concentration at […] ([1]; human, in vivo, 18 mg/day, rotigotine plasma concentration Max, Shoulder, Days 27 & 30 Combined, 23.5 H): 3.01 ng/mL
concentration at […] ([1]; human, in vivo, 18 mg/day, rotigotine plasma concentration Max, Thigh, Day 30, 23.5 H): 1.59 ng/mL
concentration at […] ([1]; human, in vivo, 18 mg/day, rotigotine plasma concentration Max, Thigh, Days 27 & 30 Combined, 23.5 H): 1.59 ng/mL
concentration at […] ([1]; human, in vivo, 18 mg/day, rotigotine plasma concentration Max, Upper Arm, Day 27, 23.5 H): 1.88 ng/mL
concentration at […] ([1]; human, in vivo, 18 mg/day, rotigotine plasma concentration Max, Upper Arm, Day 30, 23.5 H): 1.67 ng/mL
concentration at […] ([1]; human, in vivo, 18 mg/day, rotigotine plasma concentration Max, Upper Arm, Days 27 & 30 Combined, 23.5 H): 1.88 ng/mL
concentration at […] ([1]; human, in vivo, 18 mg/day, rotigotine plasma concentration Mean, Hip, Day 27, 23.5 H): 0.96 ng/mL
concentration at […] ([1]; human, in vivo, 18 mg/day, rotigotine plasma concentration Mean, Hip, Day 30, 23.5 H): 0.82 ng/mL
concentration at […] ([1]; human, in vivo, 18 mg/day, rotigotine plasma concentration Mean, Hip, Days 27 & 30 Combined, 23.5 H): 0.89 ng/mL
concentration at […] ([1]; human, in vivo, 18 mg/day, rotigotine plasma concentration Mean, Shoulder, Day 30, 23.5 H): 1.02 ng/mL
concentration at […] ([1]; human, in vivo, 18 mg/day, rotigotine plasma concentration Mean, Shoulder, Days 27 & 30 Combined, 23.5 H): 0.966 ng/mL
concentration at […] ([1]; human, in vivo, 18 mg/day, rotigotine plasma concentration Mean, Thigh, Day 30, 23.5 H): 0.784 ng/mL
concentration at […] ([1]; human, in vivo, 18 mg/day, rotigotine plasma concentration Mean, Thigh, Days 27 & 30 Combined, 23.5 H): 0.735 ng/mL
concentration at […] ([1]; human, in vivo, 18 mg/day, rotigotine plasma concentration Mean, Upper Arm, Day 27, 23.5 H): 0.936 ng/mL
concentration at […] ([1]; human, in vivo, 18 mg/day, rotigotine plasma concentration Mean, Upper Arm, Day 30, 23.5 H): 0.924 ng/mL
concentration at […] ([1]; human, in vivo, 18 mg/day, rotigotine plasma concentration Mean, Upper Arm, Days 27 & 30 Combined, 23.5 H): 0.93 ng/mL
concentration at […] ([1]; human, in vivo, 18 mg/day, rotigotine plasma concentration Median, Hip, Day 27, 23.5 H): 0.957 ng/mL
concentration at […] ([1]; human, in vivo, 18 mg/day, rotigotine plasma concentration Median, Hip, Day 30, 23.5 H): 0.692 ng/mL
concentration at […] ([1]; human, in vivo, 18 mg/day, rotigotine plasma concentration Median, Shoulder, Day 30, 23.5 H): 0.848 ng/mL
concentration at […] ([1]; human, in vivo, 18 mg/day, rotigotine plasma concentration Median, Shoulder, Days 27 & 30 Combined, 23.5 H): 0.799 ng/mL
concentration at […] ([1]; human, in vivo, 18 mg/day, rotigotine plasma concentration Median, Thigh, Day 30, 23.5 H): 0.68 ng/mL
concentration at […] ([1]; human, in vivo, 18 mg/day, rotigotine plasma concentration Median, Thigh, Days 27 & 30 Combined, 23.5 H): 0.668 ng/mL
concentration at […] ([1]; human, in vivo, 18 mg/day, rotigotine plasma concentration Median, Upper Arm, Day 30, 23.5 H): 0.899 ng/mL
concentration at […] ([1]; human, in vivo, 18 mg/day, rotigotine plasma concentration Median, Upper Arm, Days 27 & 30 Combined, 23.5 H): 0.899 ng/mL
concentration at […] ([1]; human, in vivo, 18 mg/day, rotigotine plasma concentration Min, Hip, Day 27, 23.5 H): 0.261 ng/mL
concentration at […] ([1]; human, in vivo, 18 mg/day, rotigotine plasma concentration Min, Hip, Day 30, 23.5 H): 0.461 ng/mL
concentration at […] ([1]; human, in vivo, 18 mg/day, rotigotine plasma concentration Min, Hip, Days 27 & 30 Combined, 23.5 H): 0.261 ng/mL
concentration at […] ([1]; human, in vivo, 18 mg/day, rotigotine plasma concentration Min, Shoulder, Day 30, 23.5 H): 0.405 ng/mL
concentration at […] ([1]; human, in vivo, 18 mg/day, rotigotine plasma concentration Min, Shoulder, Days 27 & 30 Combined, 23.5 H): 0.387 ng/mL
concentration at […] ([1]; human, in vivo, 18 mg/day, rotigotine plasma concentration Min, Thigh, Day 30, 23.5 H): 0.152 ng/mL
